PMC9851200, “Multiparameter phenotypic screening for endogenous TFEB and TFE3 translocation identifies novel chemical series modulating lysosome function” (Autophagy, 2022)
Read-outs that look alike come from different tables or passages of the source.

Columns and labels:
Conditions in all cases: PKIS2 primary screening
SH-SY5Y cells [1] = test: AK (adenylate kinase) release ToxiLight cytotoxicity assay; also: reference of the scale not given here
SH-SY5Y cells [2] = test system: SH-SY5Y cells; also: reference of the scale not given here
endogenous TFE3 = test: TFE3 nuclear translocation, immunocytochemistry high-content imaging; type: cell-based
SH-SY5Y cells [3] = test: Nuclear count from microscopy images (cellular growth and toxicity); also: reference of the scale not given here
endogenous TFEB = test: TFEB nuclear translocation, immunocytochemistry high-content imaging; type: cell-based

Row | SMILES | AK (SH-SY5Y cells [1]) | DQ Intensity (SH-SY5Y cells [2]) | DQ Spot (SH-SY5Y cells [2]) | TFE3 % (endogenous TFE3) [%] | Nuclear Count (SH-SY5Y cells [3]) | TFEB % (endogenous TFEB) [%] | DQ Intensity (SH-SY5Y cells [2]; DQ Red BSA intensity) | DQ Spot (SH-SY5Y cells [2]; DQ Red BSA spot count)
1 | CCn1c(-c2nonc2N)nc2c(-c3ccccc3)ncc(OCCCN)c21.O=C(O)C(F)(F)F.O=C(O)C(F)(F)F [UNC10225047A] | 103.12 | 51.60 | 50.36 | 79.68 | 137.54 | 27.76 | – | –
2 | Clc1ccc(-c2cc(-c3c[nH]nc3-c3ccccn3)ccn2)cc1 [UNC10225057A] | 69.86 | – | – | 9.30 | 99.07 | 5.33 | 80.85 | 100.06
3 | Nc1nccc(-c2c(-c3ccc(F)cc3)ncn2C2CCN(Cc3ccccc3)CC2)n1 [UNC10225058A] | 75.20 | 142.65 | 129.81 | 7.38 | 98.98 | 3.25 | – | –
4 | COc1cc2ncn(-c3cc(OCc4ccncc4)c(C(N)=O)s3)c2cc1OC [UNC10225069A] | 99.11 | 66.90 | 87.03 | 7.35 | 104.39 | 3.88 | – | –
5 | Cn1cc(-c2ccc3c(c2)CCN3C(=O)Cc2cc(F)cc(F)c2F)c2c(N)ncnc21 [UNC10225071A] | 97.57 | 128.82 | 133.47 | 19.64 | 91.42 | 5.81 | – | –
6 | N#Cc1ccc(-c2cc(-c3c[nH]nc3-c3ccccn3)ccn2)cc1 [UNC10225072A] | 65.14 | – | – | 14.52 | 116.96 | 2.62 | 58.59 | 75.50
7 | Fc1ccc(Nc2nccc(-c3c(-c4ccc(Cl)cc4)nn4ncccc34)n2)cc1F [UNC10225073A] | 84.83 | 129.98 | 108.87 | 12.07 | 119.55 | 10.16 | – | –
8 | Cc1ccc(F)c(C(=O)Nc2cccc(-c3nn4ccccc4c3-c3ccnc(Nc4cccc(F)c4)n3)c2)c1F [UNC10225076A] | 111.27 | 103.33 | 125.97 | 6.05 | 118.77 | 2.83 | – | –
9 | O=C(Nc1cccc(-c2nn3ccccc3c2-c2ccnc(Nc3cccc(F)c3)n2)c1)c1c(F)ccc(F)c1Cl [UNC10225081A] | 69.78 | 135.52 | 127.57 | 13.17 | 54.18 | 11.80 | – | –
10 | COc1cc(Nc2ncc3c(C)nc(-c4cc5ccccc5[nH]4)n3n2)cc(OC)c1OC [UNC10225084A] | 112.96 | 112.41 | 111.83 | 14.67 | 82.05 | 3.01 | – | –
11 | Cl.c1ccc(Cn2ncc3cc(Nc4ncnc5ccccc45)ccc32)cc1 [UNC10225085A] | 124.83 | – | – | 11.00 | 82.39 | 4.60 | 91.33 | 107.62
12 | CC(C)c1nc(-c2ccc(F)c(NS(=O)(=O)c3c(F)cccc3F)c2)c(-c2ccnc(Nc3ccc(N4CCOCC4)nc3)n2)s1 [UNC10225089A] | 110.72 | 67.64 | 97.60 | 14.74 | 76.92 | 9.24 | – | –
13 | CS(=O)(=O)CCNCc1nc(-c2ccc3ncnc(Nc4ccc(OCc5cccc(F)c5)c(Cl)c4)c3c2)cs1.Cl [UNC10225091A] | 98.46 | – | – | 9.84 | 114.33 | 5.83 | 63.39 | 82.01
14 | CCn1c(-c2c(N)noc2C)nc2cnccc21 [UNC10225095A] | 112.40 | 103.20 | 105.92 | 10.37 | 110.85 | 3.05 | – | –
15 | FC(F)(F)c1ccc(/C=C/c2cncnc2Nc2ccc3[nH]c(Cc4ccccc4)nc3c2)cc1 [UNC10225096A] | 102.23 | – | – | 12.52 | 103.45 | 6.39 | 116.48 | 101.82
16 | Cc1cccc2c(-c3ccncn3)c(-c3ccc(F)cc3)nn12 [UNC10225097A] | 80.54 | 92.70 | 100.21 | 7.36 | 79.09 | 5.54 | – | –
17 | Cc1c(O)cccc1Nc1ccnc2ccc(C(F)(F)F)cc12.Cl [UNC10225099A] | 102.37 | – | – | 5.56 | 127.64 | 9.28 | 122.68 | 95.32
18 | Fc1cccc(COc2ccc(Nc3ncnc4sc(-c5ccc[nH]5)cc34)cc2Cl)c1 [UNC10225101A] | 123.35 | – | – | 15.82 | 106.63 | 8.38 | 109.09 | 86.09
19 | Nc1ncnc2scc(-c3ccc(NC(=O)Cc4cc(F)ccc4F)cc3)c12.O=C(O)C(F)(F)F [UNC10225107A] | 124.57 | – | – | 9.54 | 68.49 | 8.26 | 106.01 | 96.58
20 | COc1cc(Nc2ccnc3ccc(C(F)(F)F)cc23)cc(OC)c1OC [UNC10225109A] | 98.24 | – | – | 7.95 | 107.71 | 5.89 | 93.31 | 111.66
21 | CCn1c(-c2cccnc2O)nc2cnccc21 [UNC10225114A] | 77.22 | 101.68 | 98.93 | 9.51 | 103.96 | 10.78 | – | –
22 | CS(=O)(=O)CCNCc1nc(-c2ccc3ncnc(Nc4ccc5c(cnn5Cc5ccccc5)c4)c3c2)cs1.Cl.Cl [UNC10225115A] | 99.64 | – | – | 17.35 | 105.59 | 3.62 | 104.52 | 112.81
23 | Fc1ccc(-c2nn3cccc(F)c3c2-c2ccncc2)cc1 [UNC10225116A] | 96.78 | – | – | 11.01 | 80.47 | 9.32 | 138.45 | 107.80
24 | NC(=O)Nc1sc(-c2ccc(F)cc2)cc1C(N)=O [UNC10225118A] | 76.60 | 77.43 | 92.26 | 11.46 | 81.29 | 7.01 | – | –
25 | Cc1ccc(-c2cc(-c3c[nH]nc3-c3ccccn3)ccn2)cc1 [UNC10225125A] | 116.20 | – | – | 5.68 | 147.86 | 3.15 | 86.68 | 93.68
26 | COc1ccc(COc2cc(-n3cnc4ccccc43)sc2C(N)=O)cc1 [UNC10225127A] | 69.30 | 119.47 | 107.75 | 11.50 | 109.00 | 4.73 | – | –
